From patent US7557116B2, “Substance which exhibits antiviral and antibacterial activity and is based on derivatives of 2,8-dithioxo-1H-pyrano[2,3d 6,5-d′]dipyrimidyne and 10-aza-analogue thereof” (priority 2003, dated 2009) come the findings set out here.

Like-named read-outs stand apart in the source and are kept apart here.

Common to all, as to assay type: cell-based
Experiment [1] deals with Human Immunodeficiency Virus Type 1. In words: Anti-HIV activity: protection of MT4 T-lymphoblastoid cells (IFA). The protocol: (§1) Activity against the Human immunodeficiency Virus (HIV) was also determined and, more specifically, the compounds antiviral effectiveness in protecting the T-lymphoblastoid cells MT4 from being infected by the virus-containing liquid of HTHIV27 cultures. The cells infected by the virus were analyzed according to the following methods: (1) An indirect immunofluorescence (IFA) with a polyclonal anti-serum was received from an HIV Infected human (the antibody titer in the IFA was 1:1000000) and, (2) A competitive IFA was utilized with monoclonal antibodies (MonAb) to p24 HIV and a polyclonal substrate. A solution of 1:540 was used in the tests. Azidothymidin (AZT) was used as the control.
The results documented in the table shown in TABLE 6 evidence that the compounds tested inhibit the reproduction of the Human Immunodeficiency Virus Type 1.

Experiment [2] deals with Human Immunodeficiency Virus. In words: Anti-HIV activity alone and in combination with azidothymidin in MT4 cells. The procedure: as §1, with “[…] The methods utilized to analyze the compounds effectiveness were the same” for “Azidothymidin (AZT) was used”, “foregoing methods.” for “control.”
The test system of experiment [3] is Chlamydia trachomatis D323. In words: Protection of cell culture from Chlamydia trachomatis (immunofluorescence, cytoplasmatic inclusions). The source says: The antiviral activity of the claimed compounds were also all tested against the Chlemydia trachomatis. The effects of the claimed compounds on the Chlamydia trachomatis are charted in TABLE 4. A relative strain of Chlamydia trachomatis D323 was used to test the claimed compounds. The strain, derived from a patient with Chlamydia urethritis, comprised a morphology and a physiological activity characteristic of and representative of that type. An infection dose of Chlamydia having a concentration of 1/10^6 cells/ml was introduced into a cell culture. Immunofluorescence (MicroTrack Chlamydia trachomatis Direct Specimen Test) was conducted to determine the significance of the chlamydial cytoplasmatic inclusions (CPI). A CylaMonoScreen was conducted to obtain the chlamydia antigens. The monolayer state and the number of cells with CPI were compared to the control to determine the effects the claimed compounds have on the chlamydia. The number of unchanged cells in 100 visual fields were counted utilizing a special net on a microscopic eyepiece.

Experiment [4] has as its system Herpes virus of type I. As to the kind of experiment: Protection of Vero cells from Herpes virus of type I. Conditions: for Number of cells: number of cells in 100 fields.
Experiment [5] deals with Influenza virus A.
The subject of experiment [6] is Influenza virus B.
[7] abbreviates: Influenza virus A, 48 hours at 33-34 C, ineffective when IN less than 1.0.
Where [8] appears, read: Influenza virus B, 72 hours at 33-34 C, ineffective when IN less than 1.0.

`Cc1cn([C@H]2C[C@H](N=[N+]=[N-])[C@@H](CO)O2)c(=O)[nH]c1=O` [AZT, Azidothymidin, reference compound]: the “Level of inhibition of virus reproduction” value in experiment [1] (5 mg/l) is given as 100%; in experiment [1] (50 mg/l) it was 100%; in experiment [1] (100 mg/l), 100%; in experiment [2] (0.05 mg/l) it was 50%; in experiment [2] (5.0 mg/l), 100%.
As to `Nc1nc(=S)[nH]c2c1C(c1ccc([N+](=O)[O-])cc1)c1c(O)nc(=S)[nH]c1O2` (centres unmarked) [III, 4-amino-6-hydroxi-5-(4-nitrophenyl)-5,9-dihydro-1H-pyrano[2,3-d: 6,5-d′]dipyrimidine-2,8-dition], the “Percentage of cells' defense from C. trachomatis” value (“Percentage of cells' defense” below) in experiment [3] (compound 30 mg/l) stood at 70%; in experiment [3] (compound 100 mg/l) it was 100%. In addition, the “percentage of protection of cells from virus” value (“percentage … from virus” below) in experiment [4] (compound 10 mg/l) came to 70%; in experiment [4] (compound 50 mg/l) it was 80%; in experiment [4] (compound 100 mg/l) it was 100%. The Number of cells in experiment [4] (compound 10 mg/l) turned out to be 8400; in experiment [4] (compound 50 mg/l) it was 9600; in experiment [4] (compound 100 mg/l), 12000. Besides, the Index of neutralization is listed as 0.5 in experiment [5] (setting [7]) and 1.0 in experiment [6] (setting [8]). Further, the results for the “Level of inhibition of virus reproduction” value in experiment [1] (5 mg/l), in experiment [1] (50 mg/l) and in experiment [1] (100 mg/l) were 70%, 90% and 100%, respectively.
On to `CN(C)c1nc(=S)[nH]c2c1C(c1ccc([N+](=O)[O-])cc1)c1c(O)nc(=S)[nH]c1O2` (centres unmarked) [IX, 4-dimethylamine-6-hydroxi-5-(4-nitrophenyl)-5,9-dihydro-1H-pyrano[2,3-d: 6,5-d′]dipyrimidine-2,8-dition], for which the “Percentage of cells' defense” value in experiment [3] (compound 30 mg/l) turned out to be 50%; in experiment [3] (compound 100 mg/l) it was 80%. For the same compound, the entries for the “percentage … from virus” value in experiment [4] (compound 10 mg/l), in experiment [4] (compound 50 mg/l) and in experiment [4] (compound 100 mg/l) were 50%, 70% and 80%, respectively. Besides, the Number of cells was 6000 in experiment [4] (compound 10 mg/l), 8400 in experiment [4] (compound 50 mg/l) and 9600 in experiment [4] (compound 100 mg/l). The results for the Index of neutralization in experiment [5] and in experiment [6] were 2.0 and 1.5, respectively.
Take `O=[N+]([O-])c1ccc(C2c3c(O)nc(=S)[nH]c3Oc3[nH]c(=S)nc(Cl)c32)cc1` (centres unmarked) [Ib, 4-chlorine-6-hydroxi-5-(4-nitrophenyl)-5,9-dihydro-1H-pyrano[2,3-d: 6,5-d′]dipyrimidine-2,8-dition]: the “Percentage of cells' defense” value in experiment [3] (compound 30 mg/l) came to 60%; in experiment [3] (compound 100 mg/l), 80%. Besides, the Index of neutralization in experiment [5] (setting [7]) and in experiment [6] (setting [8]) was 0.5 in each case. Further, the inhibition at 5 µg/mL is 70% in experiment [1] (Human immunodeficiency virus 1, 5 mg/l, read-out: Level of inhibition of virus reproduction) and 70% in experiment [2] (Human immunodeficiency virus 1, 5.0 mg/l, read-out: Level of inhibition of virus reproduction). For the same compound, in experiment [1] (Human immunodeficiency virus 1, 50 mg/l, read-out: Level of inhibition of virus reproduction), the inhibition at 50 µg/mL came to 90%. In addition, in experiment [1] (Human immunodeficiency virus 1, 100 mg/l, read-out: Level of inhibition of virus reproduction), the inhibition at 100 µg/mL was found to be 100%. Also, the inhibition at 0.5 µg/mL in experiment [2] (Human immunodeficiency virus 1, 0.5 mg/l, read-out: Level of inhibition of virus reproduction) turned out to be 20%.
Regarding `Nc1nc(=S)[nH]c2c1C(c1ccc([N+](=O)[O-])cc1)c1c(N)nc(=S)[nH]c1O2` [V, 4,6-diamino-5-(4-nytrophenyl)-5,9-dihydro-1H-pyrano[2,3-d: 6,5-d′]dipyrimidine-2,8-dition], the “Percentage of cells' defense” value in experiment [3] (compound 30 mg/l) turned out to be 50%; in experiment [3] (compound 100 mg/l), 80%. The “percentage … from virus” value in experiment [4] (compound 10 mg/l) is on record as 60%; in experiment [4] (compound 50 mg/l), 80%; in experiment [4] (compound 100 mg/l), 90%. Besides, the Number of cells turned out to be 7200 in experiment [4] (compound 10 mg/l), 9600 in experiment [4] (compound 50 mg/l) and 10800 in experiment [4] (compound 100 mg/l). For the same compound, the results for the Index of neutralization in experiment [5] (setting [7]) and in experiment [6] (setting [8]) were 1.0 and 1.5, respectively. The results for the “Level of inhibition of virus reproduction” value in experiment [1] (5 mg/l), in experiment [1] (50 mg/l) and in experiment [1] (100 mg/l) were 90%, 100% and 100%, respectively.
In the case of `Nc1nc(=S)[nH]c2c1C(c1ccc([N+](=O)[O-])cc1)c1c(N)nc(=S)[nH]c1N2` [VI, 4,5-diamino-10-(4-nytrophenyl)-9,10-dihydro-1H,8H-1,3,6,8,9-pentaazaantrecen-2,7dition], the “Percentage of cells' defense” value worked out at 50% in experiment [3] (compound 30 mg/l) and 80% in experiment [3] (compound 100 mg/l). The “percentage … from virus” value in experiment [4] (compound 10 mg/l) is 70%; in experiment [4] (compound 50 mg/l) it was 90%; in experiment [4] (compound 100 mg/l) it was 100%. Moreover, the Number of cells was 8400 in experiment [4] (compound 10 mg/l), 10800 in experiment [4] (compound 50 mg/l) and 12000 in experiment [4] (compound 100 mg/l). Besides, the Index of neutralization in experiment [5] (setting [7]) was 20; in experiment [6] (setting [8]) it was 1.5.
Regarding `O=[N+]([O-])c1ccc(C2c3c(O)nc(=S)[nH]c3Oc3[nH]c(=S)nc(Sc4nc(O)cc(O)n4)c32)cc1` (centres unmarked) [X, 4-(4,6-dihydroxipirimidine-2sulfanil)-6-hydroxi-5-(4-nytrophenyl)-5,9-dihydro-1H-pyrano [2,3-d: 6,5-d′]dipyrimidine-2,8-dition], the “Percentage of cells' defense” value in experiment [3] (compound 30 mg/l) is 60%; in experiment [3] (compound 100 mg/l), 100%. Further, the “percentage … from virus” value in experiment [4] (compound 10 mg/l) is 60%; in experiment [4] (compound 50 mg/l), 80%; in experiment [4] (compound 100 mg/l), 90%. Besides, the Number of cells stood at 7200 in experiment [4] (compound 10 mg/l), 9600 in experiment [4] (compound 50 mg/l) and 10800 in experiment [4] (compound 100 mg/l). The Index of neutralization amounted to 1.5 in experiment [5] (setting [7]) and 1.0 in experiment [6] (setting [8]).
With `O=[N+]([O-])c1ccc(C2c3cnc(=S)[nH]c3Oc3[nH]c(=S)nc(O)c32)cc1` (centres unmarked) [XI, 6-hydroxi-5-4-(4-nitrophenyl)-5,9-dihydro-1H-pyrano[2,3-d: 6,5-d′]dipyrimidine-2,8-dition], the “Percentage of cells' defense” value in experiment [3] (compound 30 mg/l) worked out at 50%; in experiment [3] (compound 100 mg/l), 90%. The “percentage … from virus” value is listed as 50% in experiment [4] (compound 10 mg/l), 70% in experiment [4] (compound 50 mg/l) and 80% in experiment [4] (compound 100 mg/l). The Number of cells in experiment [4] (compound 10 mg/l) came out at 6000; in experiment [4] (compound 50 mg/l), 8400; in experiment [4] (compound 100 mg/l), 9600. Moreover, the Index of neutralization in experiment [5] (setting [7]) and in experiment [6] (setting [8]) was 1.5 in each case.

For orientation: inhibition means the relative decrease from the control value, in per cent.
